From patent publication US10183915B2, “Axially chiral isomers, and preparation methods therefor and pharmaceutical uses thereof” (MEDSHINE DISCOVERY INC., priority 2015, dated 2019)

What was measured:
[1] = Stability of compounds in DMSO solutions (heated; SFC chiral purity); format: physicochemical; conditions: for Enantiomer Excess of Compound: DMSO solution
Protocol: Example 4: Evaluation of the Stability of Compounds in DMSO Solutions
(§1) An appropriate amount of test compound was accurately weighed, added into DMSO to obtain a DMSO solution. The DMSO solution of the compound was stirred in a heated oil bath. At the end of the test, a sample amount of the DMSO solution was diluted with ethanol and the purity and chiral purity of the compound was detected by high performance liquid chromatography (HPLC) or LC-MS (LCMS) and supercritical fluid chromatography (SFC).

[2] = Stability of solid compounds in ambient temperature (15° C., nitrogen cabinet, dark; SFC chiral purity); format: physicochemical; conditions: for Enantiomer Excess of the Compound: solid
Protocol: Test 2: Evaluation of the Stability of Solid Compounds in Ambient Temperature.
20 mg of test compound was placed into 5 mL brown transparent sealed container with stopper and stoned in the nitrogen cabinet (15° C.) in the dark. After the preset storage time, about 2 mg of test compound was accurately weighed, added into ethanol to prepare 1 mg/mL ethanol solution. The purity and chiral purity of the compound was detected by high performance liquid chromatography (HPLC) or LC-MS (LCMS) and supercritical fluid chromatography (SFC).

[3] = Stability of compounds in SD rat plasma; format: in vitro ADME; conditions: for Recovery (% remaining): SD rat plasma, 2 μM, 37° C.
Protocol: Test 5: Evaluation of the Stability of Compounds in Rat Plasma and Human Plasma
2. Experimental Procedures and Methods • 2.1 Prior to the experiment, the frozen plasma stored at −40° C. was thawed at room temperature and incubated in a 37° C. water bath for 5-10 min; centrifuged at 4000 rpm for 5 min, to remove impurities and lipids in the plasma. Measured the value of pH, if required, adjusted it to 7.4±0.1. • 2.2 Prepared 400 μM intermediate solution by diluting 4 μL of the working solution (10 mM) with 96 μL DMSO. • 2.3 Preparation of incubation samples: Remove 3 μL of intermediate solution (400 μM) to mix with 597 μL of blank plasma to achieve 2 μM of final concentration. Incubate each time point samples (0 min, 10 min, 30 min, 60 min, 120 min, in duplicate) at 37° C. in water bath. • 2.4 An aliquot of 100 μL samples of the final spiked plasma for each time point were removed to sample collected plates, added 400 μL of stop solution (200 ng/mL Tolbutamide plus 20 ng/mL Buspirone in 50% ACN/MeOH) to precipitate protein. Mixed thoroughly. • 2.5 Centrifuged each plate at 4,000 rpm for 20 min. Transfered an aliquot of supernatant (100 μL) from each well to sample plate and mixed with 200 μL ultra pure water. Shaked the plate at 800 rpm for about 10 min before submitting to LC-MS/MS analysis. 3. Experimental Data Analysis
The ratio of the peak area to the internal standard peak area was used to assess the decrease of the test compound to be measured. The % remaining of the test compound after incubation in plasma was calculated using following equation: % Remaining=100×(PAR at appointed incubation time/PAR at T0 time)
wherein PAR is the peak area ratio of analyte versus internal standard (IS)
The appointed incubation time points are: 0 min, 10 min, 30 min, 60 min, 120 min; T0: Samples prior to incubation.

[4] = Stability of compounds in ethanol solutions (heated; SFC chiral purity); format: physicochemical; conditions: for Enantiomer Excess of Compound: ethanol solution
Description: Test 3: Evaluation of the Stability of Compounds in Ethanol Solutions.
as §1, with “ethanol” for “DMSO”, “an ethanol” for “a DMSO”, “test,” for “test, a sample amount of the DMSO solution was diluted with ethanol and”

human URAT1 = biological target: T1, human URAT1 (Homo sapiens, UniProt Q96S37); assay: Inhibition of URAT1-mediated uptake of 14C-labeled uric acid in stably transfected HEK293 cells; format: cell-based; conditions: multiple parallel tests
T1 construct: host or cells: HEK293
T1 sequence (Q96S37 1-553): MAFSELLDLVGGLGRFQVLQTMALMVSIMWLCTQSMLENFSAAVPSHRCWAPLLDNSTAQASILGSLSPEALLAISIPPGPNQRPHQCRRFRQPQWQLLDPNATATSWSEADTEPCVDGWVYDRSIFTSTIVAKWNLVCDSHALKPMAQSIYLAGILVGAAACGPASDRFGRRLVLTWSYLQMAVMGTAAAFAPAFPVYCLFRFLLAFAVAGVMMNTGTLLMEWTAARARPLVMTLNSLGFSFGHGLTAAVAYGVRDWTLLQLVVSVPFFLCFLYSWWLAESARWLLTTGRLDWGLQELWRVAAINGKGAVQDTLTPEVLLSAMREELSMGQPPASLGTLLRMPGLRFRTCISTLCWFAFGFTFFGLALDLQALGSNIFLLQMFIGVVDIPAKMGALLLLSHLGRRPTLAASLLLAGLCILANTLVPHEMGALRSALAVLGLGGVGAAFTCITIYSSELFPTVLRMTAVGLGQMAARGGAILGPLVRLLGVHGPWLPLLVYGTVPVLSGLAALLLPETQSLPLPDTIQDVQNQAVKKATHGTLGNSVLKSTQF
Protocol: A HEK293 cell line stably transfected with URAT-1 (uric acid transporter) gene was used to determine the IC50 value of the compound to inhibit the reabsorption of uric acid.
URAT-1 (HEK293) cell lines: HEK293 cell line with human URAT1 stable transfected (the cell line was constructed by WuXi AppTec in Shanghai).
4) The cells were diluted with culture medium to 2.5×10^5 cells/mL. The diluted cells was seeded into 24-well plates (800 μg/hole, 2×10^5 cells/hole) coated with rat tail collagen and the plates were incubated at 37° C. under 5% CO2 overnight.
1) The cells were inoculated on the 24-well plates and discarded 16-18 hours later. Add 600 μL HBSS buffer to each hole and clean it two times
2) Absorb the HBSS buffer and then add 180 μL of HBSS buffer to each hole.
1) Dissolve the compound powder in 100% DMSO. […]
10 μL of ^14C-Uric acid solution was diluted and added to each well of 24-well plates and the final concentration of ^14C-uric acid was 50 μM. […] Collect the cell lysis in liquid scintillation and read the Tri-Carb signal in liquid scintillation counter after adding the liquid scintillation solution.
Based on the luminescence data, the inhibitory effect of compounds on URAT-1 was analyzed, and the percentage of inhibition data was calculated. […]

SMILES: O=C(O)CSc1nnc(Br)n1-c1ccc(C2CC2)c2ccccc12 (single isomer, unassigned) [(+)-Lesinurad]
- Enantiomer Excess of Compound ([1]; 80° C., 0 h): 95.9%
- Enantiomer Excess of Compound ([1]; 80° C., 2 × 24 h): Unchanged
- Enantiomer Excess of Compound ([1]; 80° C., 4 × 24 h): Unchanged
- Enantiomer Excess of Compound ([1]; 80° C., 2 h): Unchanged
- Enantiomer Excess of Compound ([1]; 80° C., 4 h): Unchanged
- Enantiomer Excess of Compound ([1]; 80° C., 8 h): Unchanged
- Enantiomer Excess of Compound ([1]; 80° C., 24 h): Unchanged
- Enantiomer Excess of Compound ([1]; 120° C., 0 h): 95.9%
- Enantiomer Excess of Compound ([1]; 120° C., 2 × 24 h): Unchanged
- Enantiomer Excess of Compound ([1]; 120° C., 4 × 24 h): Unchanged
- Enantiomer Excess of Compound ([1]; 120° C., 2 h): Unchanged
- Enantiomer Excess of Compound ([1]; 120° C., 4 h): Unchanged
- Enantiomer Excess of Compound ([1]; 120° C., 8 h): Unchanged
- Enantiomer Excess of Compound ([1]; 120° C., 24 h): Unchanged
- Enantiomer Excess of Compound ([1]; 160° C., 0 h): 95.9%
- Enantiomer Excess of Compound ([1]; 160° C., 8 h): Unchanged
- Stability in DMSO solutions (SFC purity) ([1]; heating to 80° C., 120° C. and up to 160° C.): very stable
- Enantiomer Excess of the Compound ([2]; storing time 0 day): 95.9%
- Enantiomer Excess of the Compound ([2]; storing time >80 days): Unchanged
- Stability of the solid powder (SFC purity) ([2]; storing over 80 days): very stable
- Stability after co-incubation with SD-rat plasma ([3]; 2 hours): very stable
- Recovery (% remaining) ([3]; 30 min): 100.3%
- Recovery (% remaining) ([3]; 60 min): 99.7%
- Recovery (% remaining) ([3]; 120 min): 101.2%
- Enantiomer Excess of Compound ([4]; 37° C., 3 days): Unchanged
- Enantiomer Excess of Compound ([4]; 70° C., 3 days): Unchanged
- Enantiomer Excess of Compound ([4]; heating time 0 day): 95.9%
- Stability in ethanol solutions (SFC purity) ([4]; heating to 37° C. and up to 70° C.): very stable
- In vitro potency against URAT1 compared with (−)-Lesinurad and (±)-Lesinurad (human URAT1): obviously higher in vitro potency
